Like-named read-outs stand apart in the source and are kept apart here.
Legend:
[1] = tested on: tMCAO in C57BL/6 mice; conditions: 40 mg/kg; 48 h after treatment; earlier report of the group; cited from earlier work
[2] = tested on: tMCAO in C57BL/6 mice; conditions: 40 mg/kg; data recently reported by the group; cited from earlier work
[3] = tested on: primary neuronal cultures subjected to OGD; test: ROS formation in primary neuronal cultures after OGD; type: cell-based, rat; conditions: 2 h recovery after 4 h OGD; significant at 100 μM
Protocol: Measurement of the ROS formation. To detect the intracellular ROS formation a nonfluorescent and cell permeable reagent was used according to the supplier instructions (Sigma, MAK143). The reagent enters into the cells and reacts with ROS (especially superoxide and hydroxyl radicals) in the cytoplasm, resulting in a fluorometric product proportional to the amount of ROS present. The reagent was added to the cells at the moment that they were subjected to different treatments. After recovery period for 2 h, the fluorescence intensity was at 490 nm λex and 535 nm λem.
Exposure of neuronal cultures to 4 h OGD induced significant ROS generation after 2 h recovery in normoxic and normoglycemic conditions (R2 h) (210%, p<0.005 compared with 100% control) (FIG. 5A). […] ROS generation may induce lipid peroxidation and cell membrane damage. […] The decrease of ROS formation and lipid peroxidation were significant at 100 μM QN 23, in accordance with the concentration at which the QN 23 had the higher neuroprotective activity against experimental ischemia in neuronal cultures (FIG. 4 and Table 1).

[4] = tested on: Carrageenan-induced rat paw edema; test: Inhibition of Carrageenan-induced rat paw edema; type: in vivo, Fisher 344 rats; conditions: 0.01 mmol/kg intraperitoneally; 3.5 h after Carrageenan
Protocol: Inhibition of the Carrageenan-induced edema. Edema was induced in the right hind paw of Fisher 344 rats (150-200 g) by the intradermal injection of 0.1 mL 2% Carrageenan in water. Both sexes were used. Females pregnant were excluded. Each group was composed of 6 animals. The experiment was performed twice for validation. The animals, which have been bred in our laboratory, were housed under standard conditions and received a diet of commercial food pellets and water ad libitum during the maintenance, but they were entirely fasted during the experiment period. Nitrone 23 as well as of the standard drug indomethacin in 0.01 mmol/kg body weight, were diluted in water with few drops of Tween 80 and ground in a mortar before use and they were given intraperitoneally simultaneously with the Carrageenan injection. The rats were euthanized 3.5 h after Carrageenan administration. The difference between the weight of the injected and uninjected paws was calculated for each animal. The change in paw weight was compared with that in control animals (treated with water/or Tween-water) and expressed as a percent inhibition of the edema % ICPE values (Table 2). Values % ICPE are the mean from two different experiments (n=6 animals each time) with a standard error of the mean less than 10%.

[5] = tested on: primary neuronal cultures subjected to OGD; test: Lipid peroxidation (MDA) in primary neuronal cultures after OGD; type: cell-based, rat; conditions: 4 h recovery after 4 h OGD; significant at 100 μM
Protocol: Lipid peroxidation. Lipid peroxidation was evaluated by the detection of end products such as malondialdehyde (MDA) as a result of oxidative attack to polyunsaturated lipids. Lipid peroxidation was determined by the reaction of MDA with thiobarbituric acid (TBA) to form a colorimetric/fluorometric product, proportional to the MDA present. After recovery period for 4 h, cells (1.5×10^6) were lysed and centrifuged according to the supplier instructions (Sigma, MAK085), and then the thiobarbituric acid was added to the supernatant and mixed in a vortex. The samples were incubated at 95° C. for 60 min, cooled to room temperature and then n-butanol and 5M NaCl were added in a reaction mixture 8:3:1 (v/v) sample:n-butanol:NaCl. After mixed in a vortex, the samples were centrifuged, the n-butanol layer was taken and evaporated, the MDA-TBA adducts were dissolve in water and the absorbance was measured at 540 nm.
Exposure of neuronal cultures to 4 h OGD induced significant ROS generation after 2 h recovery in normoxic and normoglycemic conditions (R2 h) (210%, p<0.005 compared with 100% control) (FIG. 5A). […] ROS generation may induce lipid peroxidation and cell membrane damage. […]

[6] = tested on: tMCAO in C57BL/6 mice; test: Infarct size (TTC staining) after tMCAO; type: in vivo; conditions: 2.0 mg/kg; 48 h after tMCAO
Protocol: Animal model of focal cerebral ischemia. Transient occlusion of a distal branch of the middle cerebral artery (tMCAO) was induced in male C57BL/6 mice (9-12 week old, Charles River) as previously described.^57 The animals were housed in a light/dark cycle (12 hour), humidity and temperature (22±2° C.) controlled environment with food and water available ad libitum. Briefly, mice were anesthetized with 4% isoflurane for induction and 1.5-2% isoflurane for maintenance (in 79% N2/21% O2). After drilling a small hole on the temporal bone, the middle cerebral artery (MCA) was compressed for 60 min with a 30-G needle using a micromanipulator. During the surgery, body temperature was maintained between 37.0±0.5° C. using a homoeothermic blanket and CBF was monitored using laser-Doppler flowmetry to confirm MCA occlusion. […]
Infarct volume evaluation. The size of infarction was evaluated at 48 hours after MCAO using 2,3,5-tetrazolium chloride (TTC) staining.^58 Mice were sacrificed by transcardial perfusion with ice-cold saline under deep anesthesia. […] The infarct areas were measured using the Image-J software and the infarct volume was determined by linear integration of the measured lesion areas and distances over the sections. […]
To examine the efficacy of QN 23 treatment in animals subjected to tMCAO, the infarct size was calculated 48 h after tMCAO model induction. […]

Compound	improvement of grip strength [1]	size of the ischemic lesion (in words) [2]	ROS formation [3]	ICPE % [4]	lipid peroxidation [5]	size of the ischemic lesion (in words) [6]
CC(C)(C)/[N+]([O-])=C/c1ccc(S(=O)(=O)O)cc1S(=O)(=O)O [Compound 2, sodium (Z)-4-((tert-butyloxidoazanylidene)methyl)benzene-1,3-disulfonate, reference compound]	11.8%	did not reduce the size of the ischemic lesion	–	–	–	–
COc1ccc2nc(Cl)c(/C=[N+](\[O-])C(C)(C)C)cc2c1 [Compound 23, (Z)—N-tert-Butyl-1-(2-chloro-6-methoxyquinolin-3-yl)methanimine oxide]	–	–	significantly decreased to the control value	48.5 ± 0.8 %	significantly decreased compared to R4 h value	significantly lower than in vehicle treated animals
